Results: patent US10562844B2, “HYPDH inhibitors and methods of use for the treatment of kidney stones” (Wake Forest University Health Sciences, priority 2015, dated 2020)

Tests used:
[1] = target: T1, human HYPDH (Homo sapiens (Human), UniProt Q9UF12); test: HYPDH inhibition activity assay (inhibitor pre-incubated 5 min, reaction started with Hyp); format: biochemical; settings: inhibitor pre-incubated with HYPDH for 5 min; reaction started by addition of 600 mM Hyp
Description: (§1) Despite the identification of the Hyp pathway in rat and bovine kidneys and livers over 50 years ago, very little is known about human HYPDH (also known as PRODH2 and hydroxyproline oxidase, HPOX, in the literature) (Miyata et al., Proc Natl Acad Sci USA 111, 14406-14411, 2014; Efron et al., New Engl J Med 272, 1299-1309; Pelkonen et al., New Engl J Med 283, 451-456, 1970). In an effort to biochemically and structurally characterize human HYPDH, we have evaluated numerous expression constructs (>15) in Escherichia coli with N- and C-terminal truncations. […] Only the constructs containing the residues 147-515 and 156-515 were >96% loaded with FAD+ and active.
Each inhibitor was pre-incubated with HYPDH for 5 min, and the reaction started by the addition of 600 mM Hyp. A range of concentrations was tested in order to determine the IC50 value. Table 1 lists the potency of the compounds.

[2] = target: T1, human HYPDH; test: Anaerobic titration of the FAD+ spectrum of recombinant HYPDH; format: binding
Description: as §1

T1 sequence (Q9UF12 71-439 limits assumed): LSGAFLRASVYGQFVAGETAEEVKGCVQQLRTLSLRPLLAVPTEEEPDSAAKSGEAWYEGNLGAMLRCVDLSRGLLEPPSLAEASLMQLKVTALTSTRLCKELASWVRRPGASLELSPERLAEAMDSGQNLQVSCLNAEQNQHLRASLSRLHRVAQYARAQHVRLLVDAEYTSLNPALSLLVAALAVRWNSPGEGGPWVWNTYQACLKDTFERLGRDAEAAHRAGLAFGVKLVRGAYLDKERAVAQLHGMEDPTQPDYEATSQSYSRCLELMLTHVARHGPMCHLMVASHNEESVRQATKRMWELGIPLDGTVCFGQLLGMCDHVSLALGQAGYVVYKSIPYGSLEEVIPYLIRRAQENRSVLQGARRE

Compound	IC50 [1]	Kd [2]
O=C(O)C1CCCO1 (stereo not drawn) [Compound 2]	1500 ± 100 µM	
O=C(O)C1CCC(O)C1 (stereo not drawn) [Compound 5]	2100 ± 100 µM	
O=C(O)C1CC[C@@H](O)C1 (stereo partly drawn) [Compound 6]	> 10000 µM	
O=C(O)C1CC[C@H](O)C1 (stereo partly drawn) [Compound 7]	600 ± 10 µM	
O=C(O)C[C@H]1CC[C@H](O)C1 [Compound 8]	480 ± 10 µM	
N[C@H]1CCC(C(=O)O)C1 (stereo partly drawn) [Compound 9]	630 ± 10 µM	
O=C1CCC(C(=O)O)C1 (stereo not drawn) [Compound 10]	380 ± 10 µM	
O=C1CC[C@@H](C(=O)O)C1 [Compound 11]	370 ± 10 µM	
O=C(O)C1CC(O)CN1 (stereo not drawn) [Hyp, Hydroxyproline]		125 µM
